Laboratory results reported in PubChem BioAssay AID1963432 (Molecular Pharmacology Branch, DTP, NCI, 2024).
Several values for one entry are separate records, joined by “and”; a condition that tells them apart may be missing. Equal entries are not always repeated.

Tested on: SYO-1 complex spheroid growth, percent test/control
Experiment: Anticancer human tumor SYO-1 cell line growth inhibition [Asc];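 also: compound exposure lasted 7 days after spheroids grew 3 days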;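 as to viability, T/C: 100% = DMSO vehicle control viability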
Settings: for viability, T/C: stronger effect = lower value
Procedure, shortened: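 Complex solid-tumor spheroids incorporating human endothelial and mesenchymal stem cells received single agents or combinations over half-log dilution ranges anchored to clinical Cmax.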

[1] = curve of first compound, second compound 0.01 µM
[2] = curve of first compound, second compound 0.0316 µM
[3] = curve of first compound, second compound 0.1 µM
[4] = curve of first compound, second compound 0.316 µM
[5] = curve of first compound, second compound 1 µM
[6] = second compound 0.01 µM, first compound 0.0316 µM
[7] = second compound 0.01 µM, first compound 0.1 µM
[8] = second compound 0.0316 µM, first compound 0.0316 µM
[9] = second compound 0.0316 µM, first compound 0.1 µM
[10] = second compound 0.1 µM, first compound 0.0316 µM
[11] = second compound 0.1 µM, first compound 0.1 µM
[12] = second compound 0.316 µM, first compound 0.0316 µM
[13] = second compound 0.316 µM, first compound 0.1 µM
[14] = second compound 1 µM, first compound 0.0316 µM
[15] = second compound 1 µM, first compound 0.1 µM

Cn1ncnc1[C@H]1c2n[nH]c(=O)c3cc(F)cc(c23)N[C@@H]1c1ccc(F)cc1 + CNC(C)C(=O)NC1CN(S(=O)(=O)c2cccc(S(=O)(=O)N3CCC4CCC(C(=O)NC(c5ccccc5)c5ccccc5)N4C(=O)C(NC(=O)C(C)NC)C3)c2)CCC2CCC(C(=O)NC(c3ccccc3)c3ccccc3)N2C1=O
IC50 [1]: > 0.1 µM
IC50 [2]: > 0.1 µM
IC50 [3]: > 0.1 µM
IC50 [4]: > 0.1 µM
IC50 [5]: > 0.1 µM
viability, T/C (second compound 0.01 µM, first compound 0.000316 µM): 107%
viability, T/C (second compound 0.01 µM, first compound 0.001 µM): 106%
viability, T/C (second compound 0.01 µM, first compound 0.00316 µM): 103%
viability, T/C (second compound 0.01 µM, first compound 0.01 µM): 91.8%
viability, T/C [6]: 76.8%
viability, T/C [7]: 82.9%
viability, T/C (second compound 0.0316 µM, first compound 0.000316 µM): 101%
viability, T/C (second compound 0.0316 µM, first compound 0.001 µM): 102%
viability, T/C (second compound 0.0316 µM, first compound 0.00316 µM): 103%
viability, T/C (second compound 0.0316 µM, first compound 0.01 µM): 98.3%
viability, T/C [8]: 75.8%
viability, T/C [9]: 86.3%
viability, T/C (second compound 0.1 µM, first compound 0.000316 µM): 108%
viability, T/C (second compound 0.1 µM, first compound 0.001 µM): 93.6%
viability, T/C (second compound 0.1 µM, first compound 0.00316 µM): 96.8%
viability, T/C (second compound 0.1 µM, first compound 0.01 µM): 93.4%
viability, T/C [10]: 75.4%
viability, T/C [11]: 86.3%
viability, T/C (second compound 0.316 µM, first compound 0.000316 µM): 112%
viability, T/C (second compound 0.316 µM, first compound 0.001 µM): 103%
viability, T/C (second compound 0.316 µM, first compound 0.00316 µM): 95%
viability, T/C (second compound 0.316 µM, first compound 0.01 µM): 92.1%
viability, T/C [12]: 66.8%
viability, T/C [13]: 86.4%
viability, T/C (second compound 1 µM, first compound 0.000316 µM): 98.2%
viability, T/C (second compound 1 µM, first compound 0.001 µM): 107%
viability, T/C (second compound 1 µM, first compound 0.00316 µM): 96.3%
viability, T/C (second compound 1 µM, first compound 0.01 µM): 93.6%
viability, T/C [14]: 78.9%
viability, T/C [15]: 85.7%

C#Cc1c(F)ccc2cc(O)cc(-c3ncc4c(N5CC6CCC(C5)N6)nc(OCC56CCCN5CC(F)C6)nc4c3F)c12 (centres undefined) + CCN1C(C(=O)NC23CCC(C(=O)O)(CC2)CC3)C(c2cccc(Cl)c2F)C2(C(=O)Nc3cc(Cl)ccc32)C12CCCCC2
IC50 (curve of first compound, second compound 0.00949 µM): > 10 µM
IC50 (curve of first compound, second compound 0.03 µM): > 10 µM
IC50 (curve of first compound, second compound 0.0949 µM): > 10 µM
IC50 (curve of first compound, second compound 0.3 µM): < 0.0316 µM
IC50 (curve of first compound, second compound 0.949 µM): < 0.0316 µM
IC50 (curve of first compound, second compound 3 µM): < 0.0316 µM
viability, T/C (second compound 0.00949 µM, first compound 0.0316 µM): 113%
viability, T/C (second compound 0.00949 µM, first compound 0.1 µM): 95.3%
viability, T/C (second compound 0.00949 µM, first compound 0.316 µM): 101%
viability, T/C (second compound 0.00949 µM, first compound 1 µM): 98.1%
viability, T/C (second compound 0.00949 µM, first compound 3.16 µM): 113%
viability, T/C (second compound 0.00949 µM, first compound 10 µM): 112%
viability, T/C (second compound 0.03 µM, first compound 0.0316 µM): 99%
viability, T/C (second compound 0.03 µM, first compound 0.1 µM): 90.1%
viability, T/C (second compound 0.03 µM, first compound 0.316 µM): 97.2%
viability, T/C (second compound 0.03 µM, first compound 1 µM): 99.3%
viability, T/C (second compound 0.03 µM, first compound 3.16 µM): 105%
viability, T/C (second compound 0.03 µM, first compound 10 µM): 104%
viability, T/C (second compound 0.0949 µM, first compound 0.0316 µM): 84.8%
viability, T/C (second compound 0.0949 µM, first compound 0.1 µM): 81.2%
viability, T/C (second compound 0.0949 µM, first compound 0.316 µM): 88.3%
viability, T/C (second compound 0.0949 µM, first compound 1 µM): 85.8%
viability, T/C (second compound 0.0949 µM, first compound 3.16 µM): 86.8%
viability, T/C (second compound 0.0949 µM, first compound 10 µM): 79.7%
viability, T/C (second compound 0.3 µM, first compound 0.0316 µM): 26.7%
viability, T/C (second compound 0.3 µM, first compound 0.1 µM): 24.9%
viability, T/C (second compound 0.3 µM, first compound 0.316 µM): 21.6%
viability, T/C (second compound 0.3 µM, first compound 1 µM): 20.5%
viability, T/C (second compound 0.3 µM, first compound 3.16 µM): 21.6%
viability, T/C (second compound 0.3 µM, first compound 10 µM): 13.5%
viability, T/C (second compound 0.949 µM, first compound 0.0316 µM): 2.32%
viability, T/C (second compound 0.949 µM, first compound 0.1 µM): 3.19%
viability, T/C (second compound 0.949 µM, first compound 0.316 µM): 3.03%
viability, T/C (second compound 0.949 µM, first compound 1 µM): 3.66%
viability, T/C (second compound 0.949 µM, first compound 3.16 µM): 2.43%
viability, T/C (second compound 0.949 µM, first compound 10 µM): 0.85%
viability, T/C (second compound 3 µM, first compound 0.0316 µM): 1.29%
viability, T/C (second compound 3 µM, first compound 0.1 µM): 1.17%
viability, T/C (second compound 3 µM, first compound 0.316 µM): 1.63%
viability, T/C (second compound 3 µM, first compound 1 µM): 1.09%
viability, T/C (second compound 3 µM, first compound 3.16 µM): 0.91%
viability, T/C (second compound 3 µM, first compound 10 µM): 0.35%

C=C(F)C(=O)N1CCN(c2nc(OCC3CCCN3C)nc3c2CCN(c2cccc4cccc(Cl)c24)C3)CC1CC#N (centres undefined) + CNC(C)C(=O)NC1CN(S(=O)(=O)c2cccc(S(=O)(=O)N3CCC4CCC(C(=O)NC(c5ccccc5)c5ccccc5)N4C(=O)C(NC(=O)C(C)NC)C3)c2)CCC2CCC(C(=O)NC(c3ccccc3)c3ccccc3)N2C1=O
IC50 [1]: 5.65 µM
IC50 [2]: 5.6 µM
IC50 [3]: 5.58 µM
IC50 [4]: 5.46 µM
IC50 [5]: 5.36 µM
viability, T/C [6]: 99.1%
viability, T/C [7]: 113%
viability, T/C (second compound 0.01 µM, first compound 0.316 µM): 104%
viability, T/C (second compound 0.01 µM, first compound 1 µM): 99.7%
viability, T/C (second compound 0.01 µM, first compound 3.16 µM): 101%
viability, T/C (second compound 0.01 µM, first compound 10 µM): 0.23%
viability, T/C [8]: 96.7%
viability, T/C [9]: 103%
viability, T/C (second compound 0.0316 µM, first compound 0.316 µM): 101%
viability, T/C (second compound 0.0316 µM, first compound 1 µM): 98.3%
viability, T/C (second compound 0.0316 µM, first compound 3.16 µM): 99%
viability, T/C (second compound 0.0316 µM, first compound 10 µM): 0.22%
viability, T/C [10]: 100%
viability, T/C [11]: 105%
viability, T/C (second compound 0.1 µM, first compound 0.316 µM): 95%
viability, T/C (second compound 0.1 µM, first compound 1 µM): 97.2%
viability, T/C (second compound 0.1 µM, first compound 3.16 µM): 98.6%
viability, T/C (second compound 0.1 µM, first compound 10 µM): 0.21%
viability, T/C [12]: 98.5%
viability, T/C [13]: 103%
viability, T/C (second compound 0.316 µM, first compound 0.316 µM): 103%
viability, T/C (second compound 0.316 µM, first compound 1 µM): 88.7%
viability, T/C (second compound 0.316 µM, first compound 3.16 µM): 95%
viability, T/C (second compound 0.316 µM, first compound 10 µM): 0.23%
viability, T/C [14]: 104%
viability, T/C [15]: 104%
viability, T/C (second compound 1 µM, first compound 0.316 µM): 101%
viability, T/C (second compound 1 µM, first compound 1 µM): 94.2%
viability, T/C (second compound 1 µM, first compound 3.16 µM): 92.3%
viability, T/C (second compound 1 µM, first compound 10 µM): 0.26%

C=CC(=O)N1CCN(c2nc(=O)n(-c3c(C)ccnc3C(C)C)c3nc(-c4c(O)cccc4F)c(F)cc23)C(C)C1 (centres undefined)
viability, T/C (compound 0.0316 µM): 100% and 96.9% and 116%
viability, T/C (compound 0.1 µM): 108% and 98.8% and 106%
viability, T/C (compound 0.316 µM): 104% (2×) and 99.7%
viability, T/C (compound 1 µM): 103% (2×) and 104%
viability, T/C (compound 3.16 µM): 98.7% and 95.2% and 101%
viability, T/C (compound 10 µM): 94.3% and 87.2% and 89.7%
IC50 (curve of compound): > 10 µM
